The subject of one test is TRB3. The experiment in a line: Suppressive effects of amino acids on TRB3 expression in cultured hepatocytes (Fao cells, quantitative PCR). Type of test: cell-based, rat. Conditions: 3 h, minus amino acid medium plus one L-amino acid 1 mM (or standard medium), mRNA, minus amino acid medium = 1.00, n = 4, mean ± SD. Here is the method:
Suppressive effects of twenty-two amino acids on TRB3 expression in rat hepatic cancer-derived Fao cells were examined.
The standard medium is a medium corresponding to the minus amino acid medium, except for further containing amino acids listed in Table 2.
RNAs were extracted from the cultured cells, the expression levels of TRB3 gene were determined through quantitative polymerase chain reaction (PCR), and the suppressive effects of amino acids on TRB3 expression were determined and compared with data of TRB3 expression induced upon amino acid starvation. The gene expression was corrected with reference to β-actin expression level. The correction was carried out in the same manner in the after-mentioned genes.
The data were corrected and expressed while taking the average of TRB3 mRNA levels after three-hour cultivation in the minus amino acid medium as 1.00.

A further test deals with G6Pase. The experiment in a line: Liver gene expression in GK rats after 8 weeks L-Asp diet (quantitative PCR): G6Pase. The test is classed as in vivo, rat. Particulars: 3% L-Asp diet (3AS), CON group = 1.00.

Molecules are shown by their SMILES.

Procedure for G6Pase: Specifically, L-Asp as mixed in a diet was administered to GK rats over a long time, and the effect of the administration on gene expression in the liver and disease state was determined.
Male 6-week-old GK rats were purchased, pre-fed for one week, grouped into the following groups each including five rats, the diet was replaced with experimental diets, and the rats were fed with the experimental diets for eight weeks.
On week eight of administration, the liver was extirpated after eighteen-hour fasting, RNAs were extracted, and the gene expressions were determined through quantitative PCR and compared.

For `N[C@@H](CC(=O)O)C(=O)O` [L-Asp, L-aspartic acid], the TRB3 expression level with TRB3 was 0.724 ± 0.13; in the test on TRB3 (listed as aspartic acid) it was “significantly suppressed TRB3 expression”. For the same compound, the “G6Pase mRNA level in liver” value in the test on G6Pase came to 0.99 ± 0.15.

(Values after patent US20080038321A1, “PROPHYLACTIC/THERAPEUTIC COMPOSITIONS FOR LIVER DISEASES” (Ajinomoto Co., Inc., priority 2004, published 2008).)
